Tested on: hepatitis C virus (HCV) genotype 1a H77c RNA
Experiment: HCV replication in Huh7 cells (HCV RNA by quantitative RT PCR)
Format: cell-based
Conditions: Huh7, 10 μM (antagomir transfected), 48 hours
Experimental: Aberrantly regulated miR-122 is involved in the development of heptocellular carcinoma (HCC). miR-122 is a cellular component required by hepatitis C virus (HCV) for viral replication. […] Due to the efficient down-regulation of miRNA-122 by the small molecule inhibitors 1 and 2, both compounds were tested for their ability to inhibit HCV replication in Huh7 cells. The pHtat2Neo/QR/KR/FV/SI plasmid (provided by Dr. Stanley Lemon of University of Texas Medical Branch (UTMB)) was used to generate genotype 1a H77c RNA, which was subsequently transfected into Huh7 cells.^16 The cells were then either transfected with a miR-122 antagomir (positive control), or treated with compounds 1 and 2 (10 μM), or DMSO (negative control). After 48 hours, total RNA was isolated and HCV RNA levels were measured by quantitative RT PCR (FIG. 7). In agreement with previous reports, the antagomir reduced HCV RNA levels to 20%.^6 Moreover, the small molecule miR-122 inhibitors 1 and 2 elicited a reduction in viral load to 48% and 47%, respectively.
The pHtat2Neo/QR/KR/FV/SI plasmid (provided by Dr. Stanley Lemon)^16 was linearized using XbaI (10 units, 50 μL reaction; New England Biolabs), followed by transcription with T7 RNA Polymerase (6 h, 37° C.), and purification on Microcon 10 columns. Huh7 cells were then grown to 60% confluency in a 6 well plate and transfected with 1 μg RNA using X-tremGENE transfection reagent (Roche Applied Science, 3:2 reagent/RNA ratio) in Opti-Mem media (Invitrogen). After a 4 hour incubation at 37° C., the transfection media was removed and replaced with standard growth media (2 mL) supplemented with 10 μM of 1 or 2 (1% DMSO final concentration). All experiments were conducted in triplicate for statistical validation. […] Quantitative RT-PCR was then performed as previously described using the general HCV RT-PCR Primers (5′: […] 3′ (SEQ ID NO:7) and 5′ […] 3′) (SEQ ID NO:8) and GADPH primers (5′ […] 3′ (SEQ ID NO:9) and 5′ […] 3′) (SEQ ID NO:10) as a standard control.

Structure (SMILES)	HCV RNA levels / viral load reduced to [%]
O=C(Nc1ccc2ccccc2c1)c1ccc(Cl)cc1Cl [Compound 1]	48
O=S(=O)(c1ccc2c(c1)CCCN2)N1CCC[C@H]2CCCC[C@@H]21 [Compound 2]	47
